Structures are written as SMILES. pIC50: −log10 of the molar value. Counter-ions that a name gives are not always drawn. Bounds are passed on as bounds.

Tested on in one series: not given
Test: not given
Conditions: not given
As to `Nc1ccc(C#Cc2ccc(N3CCN4CCC3CC4)nn2)cc1`, the melting point was 181.7 to 183.4 °C.

Regarding `CC(=O)Nc1cccc(C(=O)Nc2ccc(N3CCN4CCC3CC4)cc2)c1`, the melting point lay within 184 to 187 °C.

The compound `CC(=O)Nc1ccc(C(=O)Nc2ccc(N3CCN4CCC3CC4)cc2)cc1` displayed a melting point above 240 °C.

On to `CC(=O)Nc1ccc(C(=O)Nc2ccc(N3CCN4CCC3CC4)nc2)cc1`, for which the melting point is 255 °C (dec.).

The compound `CC(=O)Nc1cccc(C(=O)Nc2ccc(N3CCN4CCC3CC4)nc2)c1` displayed a melting point of 60 °C.

Take `Fc1cccc(C#Cc2ccc(N3CCN4CCC3CC4)nn2)c1` (as salt: fumaric acid salt): the melting point was in the range of 173.5 to 175 °C.

The compound `COc1ccc(C#Cc2ccc(N3CCN4CCC3CC4)nn2)cc1` (as salt: fumaric acid salt) [Compound B4, 4-[6-(4-Methoxy-phenylethynyl)-pyridazin-3-yl]-1,4-diaza-bicyclo[3.2.2]nonane] had a melting point of 208 to 209 °C.

For the compound `C(#Cc1ccc(N2CCN3CCC2CC3)nn1)c1cccnc1` (as salt: fumaric acid salt) [Compound B5, 4-[6-(3-Pyridinlethynyl)-pyridazin-3-yl]-1,4-diaza-bicyclo[3.2.2]nonane], the melting point was 177.8 to 181.2 °C.

The target of the next series is T1, α7-subtype of nicotinic receptors (Rattus norvegicus, UniProt Q05941).
T1 construct: Cerebral cortices from male Wistar rats (150-250 g) are homogenised; from tissue; host or cells: rat cerebral cortex membrane homogenate (male Wistar rats)
T1 sequence (Q05941 23-502): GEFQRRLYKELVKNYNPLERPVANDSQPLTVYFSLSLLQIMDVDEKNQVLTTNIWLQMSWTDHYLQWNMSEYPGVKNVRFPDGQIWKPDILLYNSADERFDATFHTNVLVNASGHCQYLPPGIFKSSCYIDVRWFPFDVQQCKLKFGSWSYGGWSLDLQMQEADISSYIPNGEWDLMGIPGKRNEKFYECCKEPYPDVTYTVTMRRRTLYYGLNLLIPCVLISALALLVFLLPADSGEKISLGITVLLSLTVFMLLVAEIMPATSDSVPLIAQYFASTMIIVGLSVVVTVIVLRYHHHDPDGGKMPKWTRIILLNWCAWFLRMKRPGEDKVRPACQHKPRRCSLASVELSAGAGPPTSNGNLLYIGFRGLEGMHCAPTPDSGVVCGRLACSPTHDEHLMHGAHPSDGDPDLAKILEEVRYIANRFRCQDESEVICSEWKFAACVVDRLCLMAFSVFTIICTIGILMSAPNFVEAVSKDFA
In words: In vitro inhibition of 3H-α-bungarotoxine binding in rat brain. The note with it: rat cerebral cortex homogenate; 3H-α-bungarotoxine 2 nM; 2 hours at 37° C.
Take `C(#Cc1ccc(N2CCN3CCC2CC3)nn1)c1ccccc1` [Compound B1, 4-(6-Phenylethynyl-pyridazin-3-yl)-1,4-diaza-bicyclo[3.2.2]nonane]: the pIC50 was 7.22.

As to `COc1ccc(C#Cc2ccc(N3CCN4CCC3CC4)nn2)cc1` [Compound B4, 4-[6-(4-Methoxy-phenylethynyl)-pyridazin-3-yl]-1,4-diaza-bicyclo[3.2.2]nonane], the pIC50 was 6.74.

For the compound `C(#Cc1ccc(N2CCN3CCC2CC3)nn1)c1cccnc1` [Compound B5, 4-[6-(3-Pyridinlethynyl)-pyridazin-3-yl]-1,4-diaza-bicyclo[3.2.2]nonane], the pIC50 was 6.82.

Consider `c1ccc(Sc2ccc(N3CCN4CCC3CC4)nn2)cc1` [Compound C1, 4-(6-Phenylsulfanyl-pyridazin-3-yl)-1,4-diaza-bicyclo[3.2.2]nonane], for which the negative-log IC50 (pIC50) is 6.22.

Source of the values: patent publication US8236793B2, “Diazabicyclic aryl derivatives as cholinergic receptor modulators” (Neurosearch A/S, priority 2004, dated 2012).
